# Patent US20190315823A1, “SMALL CATIONIC ANTI-BIOFILM AND IDR PEPTIDES” (priority 2013, published 2019)
# Ends that are not written are not given here.
# Experiments:
# [1] = tested on: methicillin resistant Staphylococcus aureus (MRSA) biofilm; details: approximate peptide concentration […] (around 3 μg/ml); compared to untreated samples
# How it was run: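 Peptide was present from inoculation onward, with bacteria seeded at 1/100 from overnight cultures into BM2 biofilm medium or Luria Broth. Crystal violet staining of surface-attached cells (A595) quantified biofilm reduction at 22–46 h. K. pneumoniae was additionally screened in a real-time Bioflux flow device for some peptides.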
# [2] = tested on: human peripheral blood mononuclear cells (MCP-1); assay: SPOT-synthesized derivative screen: production of chemokine MCP-1; type: cell-based; details: Table 12, No LPS, human PBMC, peptide at ~18-24 μM; for MCP1: background subtracted 139 (HH2 derivatives), 170 (1018 derivatives), 242 (1002 and hybrid peptides) pg/ml
# How it was run: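 MCP-1 was quantified by capture ELISA in cleared culture supernatants of treated human peripheral blood mononuclear cells. Cells came from heparinized volunteer blood via Ficoll gradient and were seeded at 0.75 to 1×10^6 cells/ml (37 °C, 5% CO2).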
# [3] = tested on: LPS-stimulated human peripheral blood mononuclear cells (IL1-β); type: cell-based; details: Table 12, cells stimulated with 10 ng/ml LPS; for IL1β Production: LPS alone 1313 (HH2 derivatives), 1927 (1018 derivatives), 2455 (1002 and hybrid peptides) pg/ml
Substance,% Biofilm inhibition [1] [%],Fold increase in MCP1 cf. untreated cells [2],MCP1 [2] [pg/mL],Fold change in IL1β relative to no peptide LPS stimulated cells [3],IL1β Production [3] [pg/mL]
1018-R1: single substituted 1018 peptide (RRLIVAVRIWRR-NH2) [Peptide 1018-R1],46,5.9,832,0.13,176
HH2-R9: single substituted HH2 peptide (VQLRIRVARIRA-NH2),65,3.4,406,1.60,2099
HH2-Q9: single substituted HH2 peptide (VQLRIRVAQIRA-NH2),43,34,5588,1.01,1321
HH2-K1: single substituted HH2 peptide (KQLRIRVAVIRA-NH2),55,6.7,968,1.08,1423
1018-Q1: single substituted 1018 peptide (QRLIVAVRIWRR-NH2) [Peptide 1018-Q1],46,3.1,363,0.12,158
1018-Q2: single substituted 1018 peptide (VQLIVAVRIWRR-NH2) [Peptide 1018-Q2],52,3.5,422,0.10,127
1002-K11: single substituted 1002 peptide (VQRWLIVWRIKK-NH2) [Peptide 1002-K11],74,3.2,543.3,0.05,127
1018-Q10: single substituted 1018 peptide (VRLIVAVRIQRR-NH2) [Peptide 1018-Q10],38,0.7,-54,0.12,154
HH2-W1: single substituted HH2 peptide (WQLRIRVAVIRA-NH2),67,29,4725,0.66,866
1002-A9: single substituted 1002 peptide (VQRWLIVWAIRK-NH2) [Peptide 1002-A9],58,14.4,3239.9,0.05,127
1018-G12: single substituted 1018 peptide (VRLIVAVRIWRG-NH2) [Peptide 1018-G12],53,1.0,7,0.37,490
HH2-I8: single substituted HH2 peptide (VQLRIRVIVIRA-NH2),74,17,2789,0.53,701
HH2-A10: single substituted HH2 peptide (VQLRIRVAVARA-NH2),53,2.5,258,1.70,2234
1018-Q6: single substituted 1018 peptide (VRLIVQVRIWRR-NH2) [Peptide 1018-Q6],55,0.7,-54,0.14,186
1018-W9: single substituted 1018 peptide (VRLIVAVRWWRR-NH2) [Peptide 1018-W9],69,2.5,247,0.10,127
1018-I12: single substituted 1018 peptide (VRLIVAVRIWRI-NH2) [Peptide 1018-I12],57,19,3003,0.24,314

Substance,% Biofilm inhibition [1] [%],Fold increase in MCP1 cf. untreated cells [2],MCP1 [2] [pg/mL],Fold change in IL1β relative to no peptide LPS stimulated cells [3],IL1β Production [3] [pg/mL]
1018-Q5: single substituted 1018 peptide (VRLIQAVRIWRR-NH2) [Peptide 1018-Q5],13,0.7,-54,1.03,1354
1018-Q7: single substituted 1018 peptide (VRLIVAQRIWRR-NH2) [Peptide 1018-Q7],28,0.7,-54,1.04,1368
1002-R4: single substituted 1002 peptide (VQRRLIVWRIRK-NH2) [Peptide 1002-R4],36,0.9,-36.2,0.34,834
1018-K3: single substituted 1018 peptide (VRKIVAVRIWRR-NH2) [Peptide 1018-K3],15,49,8203,1.13,1489
HH2-I12: single substituted HH2 peptide (VQLRIRVAVIRI-NH2),65,18,2845,0.51,667
HH2-R2: single substituted HH2 peptide (VRLRIRVAVIRA-NH2),54,4.6,604,1.10,1438
HH2-W7: single substituted HH2 peptide (VQLRIRWAVIRA-NH2),70,9.2,1395,0.88,1154
1002-W10: single substituted 1002 peptide (VQRWLIVWRWRK-NH2) [Peptide 1002-W10],71,8.8,1889.1,0.05,127
HH2-G10: single substituted HH2 peptide (VQLRIRVAVGRA-NH2),58,72,12063,1.06,1391
1018-I10: single substituted 1018 peptide (VRLIVAVRIIRR-NH2) [Peptide 1018-I10],58,1.3,56,0.10,135
HH2-R8: single substituted HH2 peptide (VQLRIRVRVIRA-NH2),71,121,1890,0.79,1042
HH2-V4: single substituted HH2 peptide (VQLVIRVAVIRA-NH2),60,20,3216,0.67,877
1002-L4: single substituted 1002 peptide (VQRLLIVWRIRK-NH2) [Peptide 1002-L4],33,3.0,493.6,0.12,283
HH2-K9: single substituted HH2 peptide (VQLRIRVAKIRA-NH2),52,2.1,180,1.16,1520
1002-V5: single substituted 1002 peptide (VQRWVIVWRIRK-NH2) [Peptide 1002-V5],75,38.2,9022.6,0.18,440
